Usually AC50 stands for the midpoint of the concentration-response curve, whichever way the signal moves. One may read the IC50 as the concentration needed to halve the response being measured. One may read the EC50 as the concentration needed to bring the measured effect to its halfway point.

A short description of experiment [1]: HepG2 hepatoma cell viability loss – plate reader, dry powder, cytotoxicity control, dose response (AID 651947). Format: functional, cell-based.
Experiment [2] is described as follows: cervical cancer cell viability loss – HeLa, 24 h, plate reader, powder samples, set 3, cytotoxicity control, dose response (AID 651864). It is filed as functional, cell-based.
Experiment [3] is described as follows: ATP-based viability loss in HEK293T cells – cell-based, CellTiter-Glo luminescence, dry powder, set 2, cytotoxicity control, dose response (AID 720595). It is filed as functional. To be noted: HEK293.
The target in a further experiment is Nonstructural protein 1 (Influenza A virus, UniProt Q194T2). Format: functional, Influenza A virus (A/California/07/2009(H1N1)).
Chain of Nonstructural protein 1 (Q194T2 whole entry): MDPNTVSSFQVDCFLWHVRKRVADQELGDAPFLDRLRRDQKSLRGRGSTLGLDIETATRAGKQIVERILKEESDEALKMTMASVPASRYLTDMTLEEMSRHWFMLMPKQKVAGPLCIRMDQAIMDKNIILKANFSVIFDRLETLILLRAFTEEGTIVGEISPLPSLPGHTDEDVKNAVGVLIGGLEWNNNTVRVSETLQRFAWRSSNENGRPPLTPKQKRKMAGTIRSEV
A short description of experiment [4]: Luminescence-based counterscreen assay for KLF5 inhibitors: dose response cell-based high throughput screening assay to identify cytotoxic compounds using the IEC-6 intestinal epithelial cell line. [Related pubchem assays: 1700 (Primary screen.), 1834 (Confirmation screen.), 1858 (Summary AID.), 1905 (Counterscreen.)]. It is filed as functional. A general note: A counterscreen serves to expose hits that act by an unwanted route or on another target.

A short description of experiment [5]: ATP-based viability loss in HeLa cells – cell-based, CellTiter-Glo luminescence, dry powder, set 2, cytotoxicity control, dose response (AID 720593). It is filed as functional.
Experiment [6] can be described thus: cytotoxicity in LOX IMVI melanoma cells – cell-based, CellTiter-Glo ATP luminescence, 8/24/48 h, dry powder, HRAS target identification, dose response (AID 720602). It is filed as functional. For orientation: In ATP-based viability assays light output follows the ATP content of the culture.
A short description of experiment [7]: time-course viability loss in HT-29 cells – cell-based, CellTiter-Glo, multiple timepoints, dry powder, HRas target identification project, dose response (AID 720598). It is filed as functional.
The nature of experiment [8]: cytotoxicity in SR immunoblastic lymphoma cells – cell-based, CellTiter-Glo ATP luminescence, 8-48 h, dry powder, mechanism study for HRAS target identification, late-stage follow-up (AID 720608). It is filed as functional.
Experiment [9] in a line: cytotoxicity in SNB-75 CNS cells – cell-based, CellTiter-Glo ATP luminescence, several timepoints, dry powder, mechanism study for HRAS target identification, late-stage follow-up (AID 720624). Format: functional.
A short description of experiment [10]: cytotoxicity in CCRF-CEM lymphoblastic leukemia cells – cell-based, CellTiter-Glo ATP luminescence, 8/24/48 h, dry powder, HRAS target identification, dose response (AID 720607). It is filed as functional.
The nature of experiment [11]: HEK-293T viability loss after treatment – luminescence, T-cell screen hits, cytotoxicity control for TCR NF-kB inhibitor project, dose response (AID 489026).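 Also: cells exposed to compound about 14 hours before the viability readout.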 Format: functional, cell-based.
Experiment [12] is described as follows: fluconazole-exposed Candida albicans growth modulators – fluorescence, retest, confirmation (AID 2467). Format: functional, cell-based.
A short description of experiment [13]: NIH-3T3 fibroblast cytotoxicity, dose response, cytotoxicity control, cell-based, fluorescence, Alamar Blue, secondary assay (AID 2327).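 Also: NIH-3T3 mouse fibroblasts cultured with fluconazole at 8 µg/mL.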 Format: functional. Background: The colour change of resazurin is a common sign of viable cells or microbes.
The nature of experiment [14]: viability of HCT116 lacking mutant beta-catenin – cell-based, human colon tumor, dose response (AID 1045).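 Also: HCT116 colon tumor cells with beta catenin knocked out; cells exposed to compound for 60 hours.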 Format: functional.
Another experiment concerns the target Cytochrome P450 3A4 (Homo sapiens, UniProt P08684).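 Also: CYP3A4 tested as one member of a cytochrome P450 panel screen.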
For experiment [15], the target named is T1, Microphthalmia-associated transcription factor (Homo sapiens, UniProt O75030).
T1 sequence (O75030 whole entry): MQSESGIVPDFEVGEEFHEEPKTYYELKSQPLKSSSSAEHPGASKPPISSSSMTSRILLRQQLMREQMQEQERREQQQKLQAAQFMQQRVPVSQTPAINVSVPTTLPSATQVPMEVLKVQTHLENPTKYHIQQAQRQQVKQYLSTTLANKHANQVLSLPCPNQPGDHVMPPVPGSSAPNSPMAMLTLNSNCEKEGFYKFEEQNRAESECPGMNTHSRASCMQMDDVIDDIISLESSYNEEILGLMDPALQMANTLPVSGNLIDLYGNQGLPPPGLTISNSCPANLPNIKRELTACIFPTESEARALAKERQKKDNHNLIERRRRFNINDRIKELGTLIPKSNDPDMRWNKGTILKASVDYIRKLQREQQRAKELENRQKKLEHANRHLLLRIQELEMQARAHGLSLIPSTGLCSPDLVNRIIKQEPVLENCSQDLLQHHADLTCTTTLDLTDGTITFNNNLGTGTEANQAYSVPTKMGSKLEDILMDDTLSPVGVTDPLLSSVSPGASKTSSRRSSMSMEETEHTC
Description: reducers of TRPM1 reporter luminescence, concentration series – cell-based, SK-MEL-5, cherry-picked, set 3, MITF inhibitor project, dose response (AID 493073).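 Also: SK-MEL-5 melanoma cells with luciferase driven by the MITF target TRPM1 promoter.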 Format: functional.

Experiment [16] is described as follows: viability of PTEN-deleted HCT116 cells – cell-based, HCT116 PTEN knockout, dose response (AID 1047).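 Also: HCT116 colon tumor cells with PTEN knocked out; cells exposed to compound for 60 hours before readout; potency for loss of cell viability measured by luminescence.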 Format: functional.
The nature of experiment [17]: reduced cellular PGC1a acetyl-lysine signal – cell-based, cherry-picked samples, dose response (AID 720514).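 Also: potency may reflect raised or lowered acetylation signal.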 Format: functional.
The target of another experiment is Cytochrome P450 2C9 (Homo sapiens, UniProt P11712).
Chain of Cytochrome P450 2C9 (P11712 whole entry): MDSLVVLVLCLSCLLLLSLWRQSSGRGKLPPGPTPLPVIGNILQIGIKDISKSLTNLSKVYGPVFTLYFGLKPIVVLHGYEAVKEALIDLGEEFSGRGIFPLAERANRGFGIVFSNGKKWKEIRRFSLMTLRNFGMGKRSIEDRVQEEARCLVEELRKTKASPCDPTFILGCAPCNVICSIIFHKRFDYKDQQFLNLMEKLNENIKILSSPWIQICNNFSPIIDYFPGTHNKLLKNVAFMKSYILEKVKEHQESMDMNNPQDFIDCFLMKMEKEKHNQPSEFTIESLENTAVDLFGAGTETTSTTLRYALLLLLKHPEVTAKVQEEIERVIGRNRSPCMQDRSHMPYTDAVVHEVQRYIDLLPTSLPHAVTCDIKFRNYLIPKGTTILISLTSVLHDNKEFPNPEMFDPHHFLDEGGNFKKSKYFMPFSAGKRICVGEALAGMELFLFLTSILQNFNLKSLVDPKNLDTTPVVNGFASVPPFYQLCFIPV

The source made the active and inactive calls. Unless noted, the rule behind the calls is not given here.

Chain of Cytochrome P450 3A4 (P08684 whole entry): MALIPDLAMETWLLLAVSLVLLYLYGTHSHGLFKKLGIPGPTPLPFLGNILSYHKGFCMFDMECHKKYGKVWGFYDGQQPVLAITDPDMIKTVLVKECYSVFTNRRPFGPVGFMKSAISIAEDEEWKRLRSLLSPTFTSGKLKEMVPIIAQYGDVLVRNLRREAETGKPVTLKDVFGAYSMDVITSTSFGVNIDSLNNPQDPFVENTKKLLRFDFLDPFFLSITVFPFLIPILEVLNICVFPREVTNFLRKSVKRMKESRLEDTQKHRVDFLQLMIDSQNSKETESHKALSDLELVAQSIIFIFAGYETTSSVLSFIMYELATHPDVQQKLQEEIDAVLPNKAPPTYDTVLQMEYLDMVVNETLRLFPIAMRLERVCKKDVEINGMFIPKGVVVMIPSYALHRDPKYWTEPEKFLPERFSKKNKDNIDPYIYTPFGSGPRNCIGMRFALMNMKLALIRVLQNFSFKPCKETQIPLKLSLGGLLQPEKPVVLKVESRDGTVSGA

With `c1ccc(CSc2nnc(-c3ccccc3)s2)cc1`, the AC50 in experiment [1] is 33.8 µM (active).

`CCn1nnc(CCc2ccc(N3CCCC3)cc2)n1`: the AC50 in experiment [2] is > 160 µM (inactive).

Take `O=C(CSc1n[nH]c(-c2ccccn2)n1)Nc1ccc(Cl)cc1`: the AC50 was 2.2 µM (active) in experiment [3] and 47.5 µM (active) in experiment [5]. For the same molecule, the IC50 was 8.79 µM (active) at Nonstructural protein 1 and 5.14 µM (active) in [4].

Take `Cc1onc(C(=O)N2CCN(C(c3ccc(Cl)cc3)c3ccc(Cl)cc3)CC2)c1[N+](=O)[O-]`: the AC50 is 199 nM (active) in [6]; 1.3 µM (active) in experiment [7]; 181 nM (active) in experiment [8]; 723 nM (active) in experiment [9]; 234 nM (active) in experiment [10].

Consider `Cn1c(SC2=CS(=O)(=O)c3ccccc32)nc2ccccc21`, for which the IC50 in [11] is > 80 µM (inactive). Further, the EC50 in experiment [12] was > 38 µM (not active); in experiment [13] it was 7.76 µM (inconclusive); in experiment [14], 1.97 µM (active); in experiment [16], 2.87 µM (active). Moreover, the AC50 on Cytochrome P450 3A4 is 39.8 µM (inconclusive); in [15], 6.72 µM (active); in experiment [17] it was 11.3 µM (active); at Cytochrome P450 2C9, 28.2 µM (inconclusive).
